Laboratory results reported in publication PMC12469314, “Computational and Experimental Insights into Tyrosinase and Antioxidant Activities of Resveratrol and Its Derivatives: Molecular Docking, Molecular Dynamics Simulation, DFT Calculation, and In Vitro Evaluation” (International Journal of Molecular Sciences, 2025).

Tests used:
[1] = ABTS radical scavenging activity; details: 7 min at 37 °C, 734 nm, mean ± SD
Protocol: ABTS radical scavenging activity was measured using the method described by Thaipong et al. (2006), with minor modifications. The ABTS solution was prepared by dissolving 7 mM ABTS and mixing it with potassium persulfate in a 2:1 ratio. The mixture was allowed to react in the dark for 12–16 h. Before use, the ABTS radical cation was diluted with ultrapure water to achieve an initial absorbance of around 0.70 ± 0.02 at 734 nm, as measured using a UV spectrophotometer. Sample solutions at various concentrations were then prepared by mixing 50 μL of each sample with 100 μL of the ABTS solution. The mixture was incubated in the dark for 7 min at 37 °C. After incubation, absorbance was measured at 734 nm. All tests were performed in triplicate, and the percentage of radical scavenging activity was calculated.

[2] = DPPH radical scavenging activity; details: 30 min, 517 nm, mean ± SD
Protocol: The DPPH radical scavenging activity was determined according to the method in [45] with slight modifications. A 20 µL sample was added to a 96-well plate, followed by 0.1 mM DPPH dissolved in absolute ethanol. The mixtures were incubated in the dark at room temperature for 30 min, and their absorbance was measured at 517 nm with 3 replications using a UV spectrophotometer. The radical scavenging activity was calculated as follows:%radical scavenging = [(Acontrol − Asample)/Acontrol] × 100 where Acontrol = absorbance of the control, which contains an equal volume of DPPH and absolute ethanol, and Asample = absorbance of the sample or ascorbic acid standard, which contains an equal volume of DPPH and the sample solution. The percentage inhibition of the test solutions was calculated and plotted against their concentrations, along with the L-ascorbic acid standard, to generate a linear equation. The concentration required for IC50 was determined via interpolation from the linear equation.

[3] = target: T1, mushroom tyrosinase (Agaricus bisporus, UniProt C7FF04); experiment: Anti-mushroom tyrosinase activity (DOPA-chrome method); assay type: biochemical
T1 construct: purchased Sigma-Aldrich
Protocol: The inhibitory activity of the samples against mushroom tyrosinase was assessed using the DOPA-chrome method with some modifications. […] The assay was performed in a 96-well plate, in which the buffer was added to all wells, followed by 10% DMSO (50 μL) in the control and blank control wells. […] Next, 50 μL of tyrosinase solution was added to all wells except for the blank control and blank sample, followed by incubation at room temperature for 10 min. Subsequently, 50 μL of L-Dopa solution was added to all wells and incubated for 10 min at room temperature. Finally, the absorbance was measured at 492 nm using a UV spectrophotometer. […] All experiments were performed in triplicate.

[4] = Ferric reducing antioxidant power (FRAP); details: 595 nm, FeSO4 calibration, mean ± SD
Protocol: A FRAP assay was performed based on the method in [46] with slight modifications. The FRAP solution reagent was prepared by combining 0.3 M acetate buffer, 10 mM TPTZ solution in 40 mM HCl, and 20 mM ferric chloride (FeCl3) solution in a 10:1:1 ratio. Next, 20 µL of the sample was added to 280 µL of the FRAP reagent, and the mixture was thoroughly mixed. Absorbance was then measured at 595 nm using a UV spectrophotometer. A calibration curve was constructed with ferrous sulfate (FeSO4), and the results were expressed as the equivalent of FeSO4/g.

T1 sequence (C7FF04 1-392): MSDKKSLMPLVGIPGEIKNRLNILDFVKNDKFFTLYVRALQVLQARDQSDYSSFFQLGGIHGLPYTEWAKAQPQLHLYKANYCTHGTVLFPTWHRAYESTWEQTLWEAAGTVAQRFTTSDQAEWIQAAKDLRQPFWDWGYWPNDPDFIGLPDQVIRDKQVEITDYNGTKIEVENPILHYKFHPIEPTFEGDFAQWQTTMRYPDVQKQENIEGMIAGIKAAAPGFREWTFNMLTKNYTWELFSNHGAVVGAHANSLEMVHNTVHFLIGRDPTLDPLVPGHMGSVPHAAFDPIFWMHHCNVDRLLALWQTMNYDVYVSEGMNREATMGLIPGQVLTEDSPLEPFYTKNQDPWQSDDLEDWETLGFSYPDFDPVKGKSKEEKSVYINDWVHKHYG

Structure (SMILES) | IC50 [1] | IC50 [2] | IC50 [3] | FRAP reducing power [4]
O=C1O[C@H]([C@@H](O)CO)C(O)=C1O [L-ascorbic acid, reference compound] | 52.41 ± 0.06 µM |  |  | 
Oc1ccc(CCc2cc(O)cc(O)c2)cc1 [Dre, Dihydroresveratrol] |  | > 1500 µM | 335 ± 7.98 µM | very low reducing power
Oc1cc(O)cc(/C=C/c2ccc(O)cc2O)c1 [Ore, Oxyresveratrol] | 26.2 ± 0.57 µM | 38.1 ± 1.12 µM | 4.02 ± 0.46 µM | 664.99 ± 42.62 μmol Fe(II)/g
Oc1ccc(/C=C/c2cc(O)cc(O)c2)cc1 [Re, 3,4′,5-trihydroxy-trans-stilbene] |  |  | 517 ± 7.4 µM | 
COc1ccc(/C=C\c2cc(OC)cc(OC)c2)cc1 [Cre, Cis-trismethoxy resveratrol] |  | > 1500 µM | 532 ± 3.59 µM | very low reducing power
CC(=O)Oc1ccc(/C=C/c2cc(OC(C)=O)cc(OC(C)=O)c2)cc1 [Are, Acetyl-resveratrol] |  | > 1500 µM | 396 ± 5.74 µM | very low reducing power
